Results taken from patent publication US20050267222A1, “Stabilized composition” (DAINIPPON PHARMACEUTICAL CO. LTD., priority 2002, published 2005).

How the values were obtained:
[1] = Absorption of aldehyde by stabilizer (Experiment 4); format: physicochemical; conditions: for Residual rate of formaldehyde in the cup: 25° C. for 2 days, 1 g meglumine powder enclosed
Method: Meglumine powder (1 g) was stored in a sealed stoppered glass test tube together with a cup containing an aqueous formaldehyde solution (2 ml) (containing potassium iodide for adjusting moisture) in various concentrations (see FIG. 4). For a comparative control, a cup containing an aqueous formaldehyde solution (2 ml) (containing potassium iodide for adjusting moisture) in various concentrations was put into a sealed stoppered glass test tube without meglumine. The test tubes were stored at 25° C. or 40° C. for 2 days, and the residual amount of formaldehyde in the cup was measured in a similar manner to Experiment 1.

[2] = Reaction of Compound A powder with formaldehyde vapour, related substances by HPLC (Experiment 2); format: physicochemical; conditions: 50° C. for 14 days
Method: When Compound A powder (2 mg) was stored in a sealed stoppered glass test tube together with a cup containing an aqueous formaldehdye solution (1 ml) in various concentrations (see FIG. 2), and stored at 50° C. for 14 days, the generated amount of related substances of Compound A was measured. The generated amount of the related substances was measured by dissolving Compound A powder (2 mg) in methanol (200 ml) to give a test solution, and applying 10 μl thereof to high performance liquid chromatograph under the following conditions. The percentage ratio of the peak area of the related substances to the total peak area including that of Compound A was regarded as the generation amount thereof.
Conditions for High Performance Liquid Chromatograph:
Column: Develosil ODS-5 (inner diameter: 4.6 mm×150 mm, manufactured by NOMURA CHEMICAL CO., LTD.)
Mobile phase: Mixture of 0.01M citric acid buffer (pH 2.5):acetonitrile (75:25)
Detector: Ultraviolet-visible spectrophotometer (wave length for detection: 220 nm)
Temperature: Constant temperature around 40° C.

CNC[C@H](O)[C@@H](O)[C@H](O)[C@H](O)CO [meglumine]
Residual ratio of formaldehyde in the cup compared to without meglumine (in words) ([1]; after storage): apparently lowered | Residual rate of formaldehyde in the cup ([1]; formaldehyde 0.1 μg/ml): 85.1% | Residual rate of formaldehyde in the cup ([1]; formaldehyde 0.5 μg/ml): 75.5% | Residual rate of formaldehyde in the cup ([1]; formaldehyde 1 μg/ml): 70.7%

C[C@H](Cc1c[nH]c2c(OCC(=O)O)cccc12)NC[C@H](O)c1cccc(Cl)c1 [Compound A, [3-[(2R)-[[(2R)-(3-chlorophenyl)-2-hydroxyethyl]amino]propyl]-1H-indol-7-yleoxy]acetic acid]
Generated amount of related substances ([2]; aldehyde concentration in the cup: Not detected): Not detected | Generated amount of related substances ([2]; aqueous formaldehyde in the cup 0.0625 μg/ml): Not detected | Generated amount of related substances ([2]; aqueous formaldehyde in the cup 0.125 μg/ml): 0.031% | Generated amount of related substances ([2]; aqueous formaldehyde in the cup 0.25 μg/ml): 0.063% | Generated amount of related substances ([2]; aqueous formaldehyde in the cup 0.5 μg/ml): 0.091% | Generated amount of related substances ([2]; aqueous formaldehyde in the cup 1.0 μg/ml): 0.136%
